# In US12419897B2 (President and Fellows of Harvard College, priority 2018, dated 2025):
# Entries after “also recorded” stand apart in the source; their conditions may differ.
# Experiments:
# NCI-H716 cells [1] = assay: GLP-1 synthesis and secretion in NCI-H716 cells; type: cell-based, human; conditions: for GLP-1 secretion: in vitro; for total GLP-1 (GLP-1 synthesis): media + cell lysates; for total GLP-1 (GLP-1 synthesis) / GLP-1 secretion by CA7S extracted from cecal contents of SG mice: vs DMSO control; for GLP-1 secretion by CA7S extracted from cecal contents of SG mice: 500 μM
# Method: GLP-1 synthesis and secretion were measured in matrigel-polarized NCI-H716 cells. […] (FIG. 28B)
# Treatment with compounds. […] The cells were allowed to grow for 2 days in complete RPMI media. […] The concentration of DMSO was kept constant throughout the treatments and used as a negative control. Cells were incubated at 37° C. in an atmosphere of 5% CO2 for 2 hours. After the incubation period, cell culture media was collected in Eppendorf tubes containing 1% trifluoroacetic acid (TFA, Sigma) in sterile purified water (GenClone) to make a final TFA concentration of 0.1% and frozen at −80° C. for further GLP-1 measurements. Cells on cell culture plates were placed on ice and gently washed with PBS (GenClone). Cells used for GLP-1 measurements were treated with ice-cold cell lysis solution of 1% TFA, 1N hydrochloric acid, 5% formic acid, and 1% NaCl (all from Sigma), scraped off of the Matrigel coating, and collected in 96-well plates for peptide purification. Lysates were stored at −80° C. for further analysis.
# GLP-1 measurement. Total GLP-1 peptide measurements were performed using the GLP-1 EIA Kit (Sigma, Cat. No. RAB0201) according to manufacturer's instructions. Cell culture media and cell lysates were subjected to peptide purification using Sep Pak C18 Classic columns (Waters Corporation, Milford, Mass.). The column was pretreated with a solution of 0.1% TFA in 80% isopropyl alcohol (EMD Millipore) and equilibrated with 0.1% TFA in water. Cell culture media and cell lysates were loaded onto the column and washed with […]. The peptides were eluted in […]. The eluate was concentrated by drying under vacuum and resuspended in 0.1% TFA in water. 0.1% TFA in water was used as ‘blank’ for cell culture media and purified cell lysate ELISAs. Excess samples were stored at −80° C. for later analyses. Total GLP-1 amounts in the cell culture media (secreted) and cell lysates were calculated using a standard curve provided in the EIA kit.
# human TGR5 = biological target: T1, human TGR5 (Homo sapiens, UniProt Q8TDU6); assay: Luciferase reporter assay for human TGR5 activation in HEK293T cells overexpressing human TGR5; type: cell-based; conditions: for EC50: HEK293T cells overexpressing human TGR5; for TGR5 activation: HEK293T cells overexpressing human TGR5, luminescence readout
# T1 construct: expressed in transfected cells; host or cells: HEK293T
# T1 sequence (Q8TDU6 1-330): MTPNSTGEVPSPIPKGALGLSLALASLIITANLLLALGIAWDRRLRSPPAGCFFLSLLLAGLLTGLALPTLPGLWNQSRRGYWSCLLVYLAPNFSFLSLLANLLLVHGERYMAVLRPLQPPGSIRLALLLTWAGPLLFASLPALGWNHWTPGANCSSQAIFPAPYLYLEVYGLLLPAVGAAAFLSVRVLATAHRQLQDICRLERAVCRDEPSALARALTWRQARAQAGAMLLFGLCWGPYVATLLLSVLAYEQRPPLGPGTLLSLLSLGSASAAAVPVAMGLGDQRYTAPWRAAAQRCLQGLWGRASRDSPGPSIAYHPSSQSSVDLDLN
# Method: Human TGR5 was overexpressed in HEK93T cells along with a luciferase-based TGR5 reporter plasmid. Cells were then incubated with different concentrations of compounds overnight, and TGR5 activation was measured as a luminescence readout.
# Plasmids and transient transfections. Human TGR5 was cloned using cDNA from human Caco-2 cells as template and a forward primer with an EcoRIrestriction-site (5′-[…]-3′) and a reverse primer with a XhoI-site (5′-[…]-3′). The PCR product was cloned into the pCDNA 3.1+plasmid (Promega Corporation, Madison, Wis.) and transfected at a concentration of 0.4 μg/ml of media. For luciferase reporter assays for TGR5 activation, the pGL4.29[luc2P/CRE/Hygro] plasmid (Promega Corporation), and the pGL4.74[hRluc/CMV] plasmid (Promega Corporation) were used at concentration of 2 μg/ml and 0.05 μg/ml of media respectively. All plasmids were transfected using Opti-MEM (Gibco) and Lipofectamine 2000 (Invitrogen, Life Technologies, Grand Island, N.Y., USA) according to manufacturer's instructions. Plasmid transfection were performed in antibiotic-free media (MEM for HEK293T and RPMI for Matrigel-attached NCI-H716 cells) with 10% FBS. After overnight incubation, compounds were added in complete media and incubated overnight. Cells were harvested the next day for luciferase assay.
# Luciferase reporter assay. Luminescence was measured using the Dual-Luciferase Reporter Assay System (Promega Corporation) according to manufacturer's instructions. Cells were washed gently with PBS and lysed in PLB from the kit. Matrigel-attached cells were scraped in PLB. Luminescence was measured using the SpectraMax M5 plate reader (Molecular Devices, San Jose, Calif.) at the ICCB-Longwood Screening Facility at Harvard Medical School. Luminescence was normalized to Renilla luciferase activity and percentage relative luminescence was calculated compared to DMSO control.
# Caco-2 cells = assay: Caco-2 cell viability assay (CellTiter-Glo, ATP luminescence); type: cell-based; conditions: concentrations up to 3 mM
# Method: Compounds were also tested for toxicity using Caco-2 cells, a human intestinal epithelial cancer cell line. Caco-2 cells were incubated with compounds for 16 hours and cell death was determined using a luminescence assay measuring ATP levels as a readout for cell viability.
# Cell viability assay. Caco-2 cells were treated with compounds diluted in DMSO in complete MEM media. The concentration of DMSO was kept constant and used as a negative control. Cells were incubated with compounds overnight at 37° C. in an atmosphere of 5% CO2. The next day, cell viability was measured using CellTiter-Glo Luminescent Cell Viability Assay from Promega Corporation according to manufacturer's instructions. Luminescence was measured using the SpectraMax M5 plate reader (Molecular Devices, San Jose, Calif.) at the ICCB-Longwood Screening Facility at Harvard Medical School. Luminescence was normalized to DMSO control and percentage relative luminescence was calculated compared to DMSO control.
# [2] = Stability after incubation in buffer at physiological pHs (UPLC-MS); type: physicochemical; conditions: 37° C. in buffer at physiological pHs
# NCI-H716 cells [3] = assay: Intracellular calcium levels in NCI-H716 cells (L-cells); type: cell-based, human; conditions: NCI-H716 cells (L-cells) in vitro
# DIO mice = assay: Acute treatment of DIO mice via duodenal and rectal catheters: GLP-1 and blood glucose; type: in vivo, mouse; conditions: HFD-fed (DIO) mice, 1 mg, vs PBS; for systemic GLP-1 levels in vivo: within 15 minutes
# Method: Next, the ability of CA7S to stimulate GLP-1 secretion and improve hyperglycemia in vivo was evaluated. DIO mice were treated with either CA7S or PBS via duodenal and rectal catheters (FIG. 17A).
# [4] = listed as cholic acid 7-sulfate
# [5] = listed as Cholic acid 7-sulfate
# [6] = HFD-fed mice, acute cholic acid 7-sulfate treatment
smiles,measurement,setting,value
"C[C@H](CCC(=O)NCCS(=O)(=O)O)[C@H]1CC[C@H]2[C@@H]3CC[C@@H]4C[C@H](O)CC[C@]4(C)[C@H]3C[C@H](O)[C@]12C [TDCA, tauro-deoxycholic acid]",GLP-1 secretion after siRNA-mediated knockdown of TGR5,NCI-H716 cells [1],abolished
C[C@H](CCC(=O)O)[C@H]1CC[C@H]2[C@@H]3[C@H](NS(=O)(=O)O)C[C@@H]4C[C@H](O)CC[C@]4(C)[C@H]3C[C@H](O)[C@]12C [Compound 1],GLP-1 secretion,NCI-H716 cells [1],induce GLP-1 synthesis and secretion
same,total GLP-1 (GLP-1 synthesis),NCI-H716 cells [1],increased total GLP-1; also recorded: induce GLP-1 synthesis and secretion
same,EC50,human TGR5,2400 nM
same,TGR5 activation,human TGR5,induced TGR5 activation in a dose-dependent manner; also recorded: activate TGR5
C[C@H](CCC(=O)O)[C@H]1CC[C@H]2[C@@H]3[C@H](NS(=O)(=O)O)C[C@@H]4C[C@H](O)CC[C@]4(C)[C@H]3CC[C@]12C [Compound 2],GLP-1 secretion,NCI-H716 cells [1],induced GLP-1 secretion; also recorded: induce GLP-1 synthesis and secretion
same,total GLP-1 (GLP-1 synthesis),NCI-H716 cells [1],increased total GLP-1; also recorded: induce GLP-1 synthesis and secretion
same,EC50,human TGR5,1700 nM
same,TGR5 activation,human TGR5,induced TGR5 activation in a dose-dependent manner; also recorded: activate TGR5
C[C@H](CCC(=O)O)[C@H]1CC[C@H]2[C@@H]3[C@H](NS(=O)(=O)O)[C@H](O)[C@@H]4C[C@H](O)CC[C@]4(C)[C@H]3CC[C@]12C [Compound 3],GLP-1 secretion,NCI-H716 cells [1],induced GLP-1 secretion; also recorded: induce GLP-1 synthesis and secretion
same,total GLP-1 (GLP-1 synthesis),NCI-H716 cells [1],increased total GLP-1; also recorded: induce GLP-1 synthesis and secretion
same,TGR5 activation,human TGR5,induced TGR5 activation in a dose-dependent manner; also recorded: activate TGR5
"C[C@H](CCC(=O)O)[C@H]1CC[C@H]2[C@@H]3[C@H](O)C[C@@H]4C[C@H](O)CC[C@]4(C)[C@H]3C[C@H](O)[C@]12C [CA, cholic acid]",GLP-1 secretion,NCI-H716 cells [1],had no effect on GLP-1 secretion
same,GLP-1 secretion,NCI-H716 cells [1]; listed as cholic acid,had no effect
"C[C@H](CCC(=O)O)[C@H]1CC[C@H]2[C@@H]3[C@H](OS(=O)(=O)O)C[C@@H]4C[C@H](O)CC[C@]4(C)[C@H]3C[C@H](O)[C@]12C [CA7S, cholic acid 7-sulfate]",GLP-1 secretion by CA7S extracted from cecal contents of SG mice,NCI-H716 cells [1],also induced GLP-1 secretion in vitro
same,GLP-1 secretion by CA7S extracted from cecal contents of SG mice,NCI-H716 cells [1]; [4],exhibit activity inducing GLP-1 secretion
same,GLP-1 secretion after siRNA-mediated knockdown of TGR5,NCI-H716 cells [1],abolished
same,GLP-1 secretion after siRNA-mediated knockdown of TGR5,NCI-H716 cells [1]; [4],abolished GLP-1 secretion
same,GLP-1 secretion,NCI-H716 cells [1],induced GLP-1 secretion to a similar degree as TDCA in a dose-dependent manner
same,GLP-1 secretion,NCI-H716 cells [1]; [5],induces GLP-1 secretion in vitro better than the known GLP-1 inducer TDCA
same,viability of Caco-2 cells,Caco-2 cells,does not affect the viability
same,viability of Caco-2 cells,Caco-2 cells; [5],no toxicity
same,pH stability,[2],stable at physiological pHs
same,pH stability,[2]; [5],stable in a wide range of pHs
same,intracellular calcium levels,NCI-H716 cells [3],dose-dependent increase in calcium levels
same,intracellular calcium levels,NCI-H716 cells [3]; [5],increased calcium levels
same,"Cholic acid 7-sulfate concentration (mean ± SEM), Cecum",[6],2577 ± 185.3 pmol/mg
same,"Cholic acid 7-sulfate concentration (mean ± SEM), Hepatic portal vein",[6],6.128 ± 2.111 pmol/mg
same,"CA7S in cecal contents, on average","administration of 1 mg, duodenal and rectal catheters",2500 pmol/mg wet mass
same,cholic acid 7-sulfate in the cecum,dosing with 1 mg,~2500 µM
same,amounts in systemic circulation and portal vein (gut restriction),"ectopic introduction in mice, listed as cholic acid 7-sulfate",only minor amounts
same,blood glucose levels in vivo,DIO mice; within 15 min,reduced blood glucose levels
same,systemic GLP-1 levels in vivo,DIO mice,increased systemic GLP-1 levels
same,systemic GLP-1 levels in vivo,DIO mice; [4],induced GLP-1 levels
same,TGR5 activation,human TGR5,activated human TGR5 in a dose-dependent manner
same,TGR5 activation,human TGR5; [5],induces TGR5 activation
"C[C@H](CCC(=O)O)[C@H]1CCC2[C@H]3C(CC[C@@]21C)[C@@]1(C)CC[C@@H](O)C[C@H]1C[C@H]3S(=O)(=O)O (stereo partly drawn) [Compound 6, (4R)-4-((3R,5S,7R,8R,10S,13R,17R)-3-hydroxy-10,13-dimethyl-7-sulfohexadecahydro-1H-cyclopenta[a]phenanthren-17-yl)pentanoic acid]",GLP-1 secretion,NCI-H716 cells [1],induced an increase in GLP-1 synthesis and secretion
same,total GLP-1 (GLP-1 synthesis),NCI-H716 cells [1],increased total GLP-1; also recorded: induced an increase in GLP-1 synthesis and secretion
same,TGR5 activation,human TGR5,induced TGR5 activation in a dose-dependent manner; also recorded: activated TGR5
